This note sets out measurements from US20080306124A1, “Polycyclic Oxadiazoles or I Soxazoles and Their Use as Sip Receptor Ligands” (priority 2005, published 2008).

For this test, the target named is T1, S1P1 (EDG-1) receptor (Homo sapiens, UniProt P21453).
T1 construct: expressed in transfected cells
T1 sequence (P21453 whole entry): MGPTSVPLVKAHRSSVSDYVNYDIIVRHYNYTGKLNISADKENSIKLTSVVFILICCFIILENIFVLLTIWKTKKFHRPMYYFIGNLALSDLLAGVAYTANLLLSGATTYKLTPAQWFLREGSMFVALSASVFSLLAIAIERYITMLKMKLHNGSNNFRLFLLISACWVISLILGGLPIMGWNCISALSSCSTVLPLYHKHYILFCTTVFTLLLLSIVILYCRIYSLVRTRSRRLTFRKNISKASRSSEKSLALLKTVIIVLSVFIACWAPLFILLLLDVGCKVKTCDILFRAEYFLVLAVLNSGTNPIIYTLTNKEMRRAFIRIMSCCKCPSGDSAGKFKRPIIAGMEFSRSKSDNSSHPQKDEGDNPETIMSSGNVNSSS
Kind of test: S1P1 (EDG-1) GTP [γ-35S] binding assay, membranes from CHO cells. The test is classed as biochemical. The note with it: membranes of CHO cells expressing human EDG-1. Here is the method: A. In vitro: GPCR Activation Assay Measuring GTP [γ-^35S] Binding to Membranes Prepared from CHO Cells Expressing Human EDG Receptors
S1P1 (EDG-1) GTP [γ-^35S] binding assay: Homogenized membranes are prepared from CHO cell clones stably expressing a human EDG-1 N-terminal c-myc tag. Cells are grown in suspension in two 850 cm^2 roller bottles for three or fours days before harvesting. The cells are centrifuged down, washed once with cold PBS, and resuspended in ≦20 ml of Buffer A (20 mM HEPES, pH 7.4, […], EDTA-free complete protease inhibitor cocktail [1 tablet/25 ml]). The cell suspension is homogenized on ice, using a Polytron homogenizer at 30000 rpm at three intervals of 15 seconds each. The homogenate is first centrifuged at 2000 rpm on a tabletop low speed centrifuge for 10 minutes. The supernatant, after passing through a cell strainer, is then re-centrifuged at 50,000×g for 25 minutes at 4° C. The pellet is resuspended into buffer B (15% glycerol, 20 mM HEPES, pH 7.4, 0.1 mM EDTA, EDTA-free complete protease inhibitor cocktail [1 tablet/10 ml]). Protein concentration of the preparation is determined using the BCA Protein Assay kit (Pierce) using BSA as standard. The membranes are aliquoted and kept frozen at −80° C.
Solutions of test compounds ranging from 10 mM to 0.01 nM are prepared in DMSO. S1P is diluted in 4% BSA solution as positive controls. The desired amount of membrane preparation is diluted with ice-cold assay buffer (20 mM HEPES, pH 7.4, 100 mM NaCl, 10 mM MgCl2, 0.1% Fatty acid-free BSA, 5 μM GDP) and vortexed well. 2 μl or less of compound is distributed into each well of a round-bottom 96-well polystyrene assay plate, followed by addition of 100 µl of diluted membranes ([…]/well) and kept on ice until the addition of hot GTPγS. [^35S]-GTPγS is diluted 1:1000 (v/v) with cold assay buffer and 100 μl is added into each well. The reaction is carried out at room temperature for 90 minutes before the membranes are harvested onto Perkin-Elmer Unifilter® GF/B-96 filter plate using a Packard Filtermate Harvester. After several washes with wash buffer (20 mM HEPES, pH 7.4, 100 mM NaCl, 10 mM MgCl2), and a rinse with 95% ethanol, the filter is dried in a 37° C. oven for 30 minutes. MicroScint-20 is added and the plate sealed for scintillation counting on TopCount. EC50 values are obtained by fitting the GTP [γ-^35S] binding curves (raw data) with the dose response curve-fitting tool of GraphPad Prism. Six or twelve different concentrations are used to generate a concentration response curve (using three data points per concentration).
For orientation: EC50 means the midpoint of the concentration-response curve. Lower therefore signals greater potency. As to `CCc1ccccc1-c1ccc(-c2nc(-c3ccc(S(=O)(=O)NCC(=O)O)cc3)no2)cc1C(F)(F)F` [Example 45], the EC50 was less than 1 nM.
With `CCc1cc(-c2noc(-c3ccc(-c4ccccc4F)c(C(F)(F)F)c3)n2)ccc1S(N)(=O)=O` [Example 194, 2-Ethyl-4-[5-(2′-fluoro-2-trifluoromethyl-biphenyl-4-yl)-[1,2,4]oxadiazol-3-yl]-benzenesulfonamide] the figure was less than 1 nM; with `CCc1cc(-c2noc(-c3ccc(C4CCCCC4)c(C(F)(F)F)c3)n2)ccc1S(N)(=O)=O` [Example 196, 4-[5-(4-Cyclohexyl-3-trifluoromethyl-phenyl)-[1,2,4]oxadiazol-3-yl]-2-ethyl-benzenesulfonamide], less than 1 nM.
For `O=C(O)CCNS(=O)(=O)c1ccc(-c2noc(-c3ccc(Oc4cccc(F)c4)c(C(F)(F)F)c3)n2)cc1` [Example 54] the value was less than 1 nM; for `NS(=O)(=O)c1ccc(-c2noc(-c3ccc(OC4CCCC4)c(C(F)(F)F)c3)n2)cc1` [Example 145], less than 1 nM.
